Test results as given in US20230416314A1, “MODIFIED HIGH MOLECULAR WEIGHT GLUTENIN SUBUNIT AND USES THEREOF” (Ukko Inc., priority 2020, published 2023).
Read-outs that look alike come from different tables or passages of the source. Residues, ends and D or L forms follow the SMILES beside them. No end group written: not given here.

Assays:
[1] = target: HLA-DQ7.5 (Homo sapiens, UniProt P01909+P01920); assay: MHC II/peptide competition binding assay, HLA-DQ7.5
Experimental: The peptides were synthesized as purified material on the 2 mg scale with free acid C-termini (A&A labs, USA). One skilled in the art would appreciate that the 15-mers used included shorter de-epitoped high molecular weight glutenin peptide sequences (mutated repeating antigenic units), as described throughout. For example, Table 2 provides a listing of 15-mers and the shorter mutated repeating antigenic units present therein.
Briefly, competition assays using different concentrations of wild-type (WT) and modified glutenin peptides were conducted by diluting the peptides in NP40 buffer, and incubation for 2-4 days with purified MHC II and a radiolabeled known MHC binding peptide (peptide probe). MHC II molecules were purified by affinity chromatography, and peptides were radiolabeled using the chloramine T method. After an incubation period, the bound and unbound radiolabeled species were separated, and their relative amounts were determined by either size-exclusion gel-filtration chromatography or monoclonal antibody capture of MHC. The percent of bound radioactivity was then determined.

[2] = target: HLA-DQ2.2 (Homo sapiens, UniProt P01909+P01920, A45G/A70V/C70K/D167G/D89A/E106A/E183D/E77G/E98D/F237L/F77L/G63E/H199R/I129T/K197E/L107V/L178F/L74F/N214S/P84L/P87L/Q57E/Q76R/R75H/S185I/S97I/T103K/T109R/T172A/T60S/V73L/V78E/V99I/Y48F/Y58L/Y62S/Y69I/Y79F); assay: MHC II/peptide competition binding assay, HLA-DQ2.2
Experimental: (§1) One skilled in the art would appreciate that the 15-mers used included shorter de-epitoped high molecular weight glutenin peptide sequences (mutated repeating antigenic units), as described throughout. For example, Table 2 provides a listing of 15-mers and the shorter mutated repeating antigenic units present therein. […] MHC II molecules were purified by affinity chromatography, and peptides were radiolabeled using the chloramine T method. After an incubation period, the bound and unbound radiolabeled species were separated, and their relative amounts were determined by either size-exclusion gel-filtration chromatography or monoclonal antibody capture of MHC. The percent of bound radioactivity was then determined.

[3] = target: HLA-DQ2.5 (Homo sapiens, UniProt P01909+P01920, A45G/A70V/D89A/E106A/E77G/E98D/H199R/L107V/N214S/P84L/P87L/T103K/T109R/T172A/T60S/V78E/V99I/Y58L/Y62S/Y69I/Y79F); assay: MHC II/peptide competition binding assay, HLA-DQ2.5
Experimental: as §1

[4] = target: HLA-DQ8 (Homo sapiens, UniProt P01909+P01920, A209T/A45G/C70Q/D89A/DUP78-78/E183D/E77G/F237L/G63E/H199R/I129T/K197E/L178F/L74F/L98V/Q57E/Q76R/S185I/S97I/T217I/T49S/V73L/Y58L); assay: MHC II/peptide competition binding assay, HLA-DQ8
Experimental: as §1

[5] = test system: Gluten-reactive T-cell lines (TCLs) from celiac disease patients' biopsies; assay: T-cell activation assay (IFN-γ ELISA); format: cell-based, human; conditions: peptides 10 μM, 48 h; positive if IFNγ ≥2-fold vs control and significantly higher (one-sided t-test)
Experimental: 200 mg of protein were first incubated in 5% formic acid with 4 mg pepsin for 4 hours in 37° C. Then the sample was evaporated using speedVac. On the following day, the protein was incubated with 4 mg chymotrypsin in 20 mM ammonium-bicarbonate for 4 hours in 37° C., followed by speedVac evaporation. The concentration of the digest was then measured, and the digest was deamidated using transglutaminase, 2 U per 7 mg digest for 6 hours in 37° C. The samples were then cleaned using a C18 column, dried and resuspended in media at a concentration of 2 mg/ml. […]
TCLs from celiac disease patients' biopsies were assayed for responses to deamidated PCT-HMW proteins and HMW peptides by the detection of IFN-7 by enzyme-linked immunosorbent assay (ELISA), as previously described (Gianfrani, Carmen, et al. “Gliadin-specific type 1 regulatory T cells from the intestinal mucosa of treated celiac patients inhibit pathogenic T cells.” The journal of immunology 177.6 (2006): 4178-4186.). […] The reaction was stopped, and the plate was read on the ELISA plate reader at […]. The results were analyzed using Graphpad Prism and IFNγ levels were determined. […]

[6] = target: HLA-DQ8; assay: MHC II competition binding assay (purified MHC II, radiolabeled probe peptide as competitor)
[7] = target: HLA-DQ2.5; assay: as above
[8] = target: HLA-DQ7.5; assay: as above
[9] = target: HLA-DQ2.2; assay: as above
[10] = Table 3, 15-mer peptides, >40000 signifies binding is undetectable by assay

Row | Molecule | IC50 [3] | IC50 [4] | IC50 [1] | IC50 [2] | IC50 [8] | further results
1 | C[C@@H](O)[C@H](NC(=O)[C@H](CO)NC(=O)[C@@H](NC(=O)[C@@H]1CCCN1C(=O)[C@H](Cc1ccc(O)cc1)NC(=O)[C@H](Cc1c[nH]cn1)NC(=O)[C@H](Cc1c[nH]c2ccccc12)NC(=O)[C@H](CCC(=O)O)NC(=O)[C@H](CCC(N)=O)NC(=O)CNC(=O)[C@@H](N)CCC(N)=O)[C@@H](C)O)C(=O)N[C@@H](CCC(=O)O)C(=O)N[C@@H](CCC(N)=O)C(=O)N[C@@H](CO)C(=O)NCC(=O)O [P1h] (H-QGQEWHYPTSTEQSG-OH) |  |  |  |  |  | IC50 [1, 10]: > 40 µM; IC50 [2, 10]: 5.72 µM; IC50 [3, 10]: > 40 µM; IC50 [4, 10]: > 40 µM
2 | C[C@@H](O)[C@H](NC(=O)[C@@H]1CCCN1C(=O)[C@H](Cc1ccc(O)cc1)NC(=O)[C@H](Cc1ccc(O)cc1)NC(=O)CNC(=O)[C@H](CCCCN)NC(=O)[C@H](CCC(N)=O)NC(=O)CNC(=O)[C@@H](N)CCC(N)=O)C(=O)N[C@@H](CO)C(=O)N1CCC[C@H]1C(=O)N[C@@H](Cc1c[nH]cn1)C(=O)N[C@@H](CCC(N)=O)C(=O)N[C@@H](CO)C(=O)NCC(=O)O [SEQ ID NO: 143] (H-QGQKGYYPTSPHQSG-OH; N-terminus assumed) | 34.4 µM | > 40 µM |  |  |  | T-cell activation (IFN-γ levels by ELISA) [5]: abolishment of T-cell activation
3 | CC(C)C[C@H](NC(=O)CNC(=O)[C@H](CCCNC(=N)N)NC(=O)CNC(=O)[C@H](CCC(=O)O)NC(=O)[C@H](CCC(N)=O)NC(=O)CNC(=O)[C@@H](N)CCC(N)=O)C(=O)N[C@H](C(=O)N[C@@H](CO)C(=O)N1CCC[C@H]1C(=O)N[C@@H](Cc1c[nH]cn1)C(=O)N[C@@H](CCC(N)=O)C(=O)N[C@@H](CO)C(=O)NCC(=O)O)[C@@H](C)O [SEQ ID NO: 144] (H-QGQEGRGLTSPHQSG-OH) | > 40 µM | > 40 µM | 39.3 µM | > 40 µM |  | 
4 | C[C@@H](O)[C@H](NC(=O)[C@@H]1CCCN1C(=O)[C@H](Cc1ccc(O)cc1)NC(=O)[C@H](CCCNC(=N)N)NC(=O)CNC(=O)[C@H](CCC(=O)O)NC(=O)[C@H](CCC(N)=O)NC(=O)CNC(=O)[C@@H](N)CCC(N)=O)C(=O)N[C@@H](CO)C(=O)N1CCC[C@H]1C(=O)N[C@@H](CCCCN)C(=O)N[C@@H](CCC(N)=O)C(=O)N[C@@H](CO)C(=O)NCC(=O)O [SEQ ID NO: 146] (H-QGQEGRYPTSPKQSG-OH) | > 40 µM | > 40 µM | > 40 µM | > 40 µM |  | 
5 | CC(C)C[C@H](NC(=O)[C@H](CO)NC(=O)[C@@H](NC(=O)[C@@H]1CCCN1C(=O)[C@H](Cc1ccc(O)cc1)NC(=O)[C@H](Cc1ccc(O)cc1)NC(=O)CNC(=O)[C@@H]1CCCN1C(=O)[C@H](CCC(N)=O)NC(=O)CNC(=O)[C@@H](N)CCC(N)=O)[C@@H](C)O)C(=O)N[C@H](C(=O)N[C@@H](CCC(N)=O)C(=O)N[C@@H](CO)C(=O)NCC(=O)O)[C@@H](C)O [SEQ ID NO: 147] (H-QGQPGYYPTSLTQSG-OH) | > 40 µM | > 40 µM | > 40 µM | > 40 µM |  | 
6 | CC(C)C[C@H](NC(=O)[C@H](CC(=O)O)NC(=O)[C@H](CCCNC(=N)N)NC(=O)CNC(=O)[C@H](CCC(=O)O)NC(=O)[C@H](CCC(N)=O)NC(=O)CNC(=O)[C@@H](N)CCC(N)=O)C(=O)N[C@H](C(=O)N[C@@H](CO)C(=O)N1CCC[C@H]1C(=O)N[C@@H](CCCCN)C(=O)N[C@@H](CCC(N)=O)C(=O)N[C@@H](CO)C(=O)NCC(=O)O)[C@@H](C)O [SEQ ID NO: 169] (H-QGQEGRDLTSPKQSG-OH) | > 40 µM | > 40 µM | > 40 µM | > 40 µM |  | 
7 | C[C@H](NC(=O)[C@@H]1CCCN1C(=O)CNC(=O)[C@H](Cc1c[nH]cn1)NC(=O)CNC(=O)[C@H](CCC(=O)O)NC(=O)[C@H](CCC(N)=O)NC(=O)CNC(=O)[C@@H](N)CCC(N)=O)C(=O)N[C@@H](CO)C(=O)N1CCC[C@H]1C(=O)N[C@@H](CCCCN)C(=O)N[C@@H](CCC(N)=O)C(=O)N[C@@H](CO)C(=O)NCC(=O)O [SEQ ID NO: 174] (H-QGQEGHGPASPKQSG-OH) | > 40 µM | > 40 µM | 16.4 µM | > 40 µM |  | 
8 | QGQEGYYPTSPEQSG-OH [P1b, deamidated HMW glutenin 15-mer peptide … (SEQ ID NO: 50)] |  |  |  |  |  | IC50 [6]: 3.75 µM; IC50 [7]: 3.29 µM
9 | QGQEGHGPASPKQSG-OH [modified 15-mer peptide … (SEQ ID NO: 174)] |  |  |  |  | 16.4 µM | 
10 | QGQPRYYPTSPRQSG-OH [P1e, modified 15-mer peptide … (SEQ ID NO: 53)] |  |  |  |  | 19.4 µM | IC50 [6]: 32.5 µM; IC50 [7]: 33.2 µM
11 | QGQEGRGLTSPHQSG-OH [modified 15-mer peptide … (SEQ ID NO: 144)] |  |  |  |  | 39.3 µM | 
12 | QGQQGYYPTSPQQSG-OH [P1a, native HMW glutenin 15-mer peptide … (SEQ ID NO: 49)] |  |  |  |  |  | IC50 [6]: 14.2 µM; IC50 [7]: 29.8 µM
13 | QGQEWHYPTSTEQSG-OH [P1h, modified 15-mer peptide … (SEQ ID NO: 56)] |  |  |  |  |  | IC50 [9]: 5.72 µM
14 | QGAAGYYPTSPRQSG-OH [P1c, modified 15-mer peptide … (SEQ ID NO: 51)] |  |  |  |  | 19.9 µM | 
15 | QGQEPYGPSSPEQSG-OH [modified 15-mer peptide … (SEQ ID NO: 176)] |  |  |  |  | 28.6 µM | 
